“Also recorded” adds a separate entry of the source. Where a name gives a salt, the structure may show the parent alone. Read-outs that look alike come from different tables or passages of the source.
How the values were obtained:
in vivo = details: rat, po
rat stomach [1] = details: in vivo
rat stomach [2] = assay: Ulcerogenic activity on the stomach; details: compared with phenylbutazone
[3] = system: humans with reumatic diseases; assay: Treatment of humans with reumatic diseases / polyarthritics; format: in vivo, human
Text: In general, the new therapeutic compounds can be used to treat the same disorders as phenylbutazone. […] These therapeutic compounds have been found effective in treating humans as well as animals.

[4] = system: contortions induced by acetic acid in mice; assay: Inhibition of contortions induced by acetic acid injected into the abdominal cavity of the mouse; format: in vivo
[5] = system: carrageenin-induced oedema in the rat's paw; assay: Inhibition of carrageenin-induced oedema in rat's paw; details: for % Inhibition ± standard error (paw oedema): 3 hours after carrageenin; for Volume of paw (ml) ± standard error: measured 3 hours after carrageenin
[6] = system: granuloma induced in rats by implantation of cotton balls; assay: Granuloma induced in rats by implantation of cotton balls; format: in vivo, rat; details: for Dry granuloma ± standard error: net weight, (mg) printed in adjoining wet weight head; for Weight of wet granuloma: net weight ± standard error
Text: The figures refer to the net weight of granuloma tissue obtained by subtracting the original weight of the cotton ball.

[7] = background knowledge; cited from earlier work
[8] = 30 mg/kg per os 1 h before acetic acid injection
[9] = 100 mg/kg per os 1 h before acetic acid injection
[10] = 300 mg/kg per os 1 h before acetic acid injection
[11] = 25 mg/kg per os 1 h before carrageenin
[12] = 50 mg/kg per os 1 h before carrageenin
[13] = 100 mg/kg per os 1 h before carrageenin
[14] = 200 mg/kg per os 1 h before carrageenin
[15] = high doses (200 mg/kg), both products compared
[16] = lower dose levels (100 and 50 mg/kg)

Compound | UG: Intensity of ulceration produced in the rat stomach (rat stomach [1]) | No. of contortions ± standard error [4, 8] | % inhibition ± standard error (contortions) [4, 9] [%] | No. of contortions ± standard error [4, 9] | No. of contortions ± standard error [4, 10] | Volume of paw (ml) ± standard error [5, 11] [mL] | % Inhibition ± standard error (paw oedema) [5, 12] [%] | Volume of paw (ml) ± standard error [5, 12] [mL] | % Inhibition ± standard error (paw oedema) [5, 13] [%] | Volume of paw (ml) ± standard error [5, 13] [mL] | % Inhibition ± standard error (paw oedema) [5, 14] [%] | Volume of paw (ml) ± standard error [5, 14] [mL] | ulcerogenic indices ± standard error (rat stomach [1]; 50 mg/kg) | ulcerogenic indices ± standard error (rat stomach [1]; 100 mg/kg) | ulcerogenic indices ± standard error (rat stomach [1]; 200 mg/kg) | Percentage inhibition Dry granuloma ([6]; 50 mg/Kg/day per os) [%] | Percentage inhibition Wet granuloma ([6]; 50 mg/Kg/day per os) [%] | Dry granuloma ± standard error ([6]; 50 mg/Kg/day per os) [mg] | Percentage inhibition Dry granuloma ([6]; 100 mg/Kg/day per os) [%] | Percentage inhibition Wet granuloma ([6]; 100 mg/Kg/day per os) [%] | also measured
NC1=NCCS1 [2-amino-thiazoline, 2-amino-2-thiazoline] | – | – | – | – | – | – | – | – | – | – | – | – | – | – | – | – | – | – | – | – | LD50 (in vivo): 430 mg/kg; mortality (in vivo; 316 mg/kg): 20%; mortality (in vivo; 383 mg/kg): 40%; mortality (in vivo; 464 mg/kg): 60%; mortality (in vivo; 562 mg/kg): 70%; mortality (in vivo; 681 mg/kg): 90%; mortality (in vivo; 825 mg/kg): 90%; No. deaths (rat; 316 mg/kg per os): 2; No. deaths (rat; 383 mg/kg per os): 4; No. deaths (rat; 464 mg/kg per os): 6; No. deaths (rat; 562 mg/kg per os): 7; No. deaths (rat; 681 mg/kg per os): 9; No. deaths (rat; 825 mg/kg per os): 9
CCCCC1C(=O)N(c2ccccc2)N(c2ccccc2)C1=O [LAS 6671, 1,2-diphenyl-3,5-dioxo-4-n-butylpyrazolidine-2-amino-4-methyl-pyridine] | + | – | – | – | – | – | – | – | – | – | – | – | – | – | – | – | – | – | – | – | –
CCCCC1C(=O)N(c2ccccc2)N(c2ccccc2)C1=O [LAS 11871, 1,2-diphenyl-3,5-dioxo-4-n-butylpyrazolidine-2-amino-2-thiazoline] | + | 44.20 ± 6.03 | 54.90 ± 7.76 | 36.90 ± 6.34 | 24.10 ± 3.74 | 0.7864 ± 0.0632 | 36.01 ± 7.06 | 0.6182 ± 0.0683 | 72.40 ± 4.43 | 0.2667 ± 0.0428 | 84.00 ± 3.97 | 0.1545 ± 0.0384 | 0.59 ± 0.19 | 2.43 ± 0.41 | 3.65 ± 0.56 | 20.00 | 14.40 ± 1.90 | 61.82 ± 3.16 | 19.90 ± 6.10 | 18.60 ± 3.70 | ulcerogenic activity / gastric lesions (rat stomach [2]): much less active in this respect than phenylbutazone; also recorded: produces fewer gastric lesions; treatment of polyarthritics ([3]; 200 mg two, or three times per day): successfully treat polyarthritics; treatment of humans with reumatic diseases ([3]; humans): effective in the treatment of humans with reumatic diseases; % inhibition ± standard error (contortions) [4, 10]: 70.50 ± 4.60%; analgesic activity compared with phenylbutazone ([4]; mouse, in vivo): more potent than phenylbutazone as an analgesic; also recorded: more active as an analgesic and anti-inflammatory agent than phenylbutazone; % Inhibition ± standard error (paw oedema) [5, 11]: 18.60 ± 6.54%; activity against inflammation compared with phenylbutazone ([5]; Table 2, at doses of 50 mg/kg and above): the more active compound; activity against inflammation compared with phenylbutazone ([5]; Table 2, overall): at least as active as phenylbutazone against inflammation; anti-inflammatory activity compared with phenylbutazone ([5]; general statement): more active as an analgesic and anti-inflammatory agent than phenylbutazone; Dry granuloma ± standard error ([6]; 100 mg/Kg/day per os): 61.95 ± 4.74 mg; Percentage inhibition Dry granuloma ([6]; 200 mg/Kg/day per os): 37.60 ± 2.50%; Percentage inhibition Wet granuloma ([6]; 200 mg/Kg/day per os): 20.50 ± 2.80%; Dry granuloma ± standard error ([6]; 200 mg/Kg/day per os): 48.29 ± 1.98 mg; inhibition of granuloma tissue formation [6, 15]: about the same degree of inhibition of granuloma tissue formation; inhibition of granuloma tissue formation [6, 16]: continued to inhibit the granuloma tissue formation
CCCCC1C(=O)N(c2ccccc2)N(c2ccccc2)C1=O [Phenylbutazone, 4-n-butyl-1,2-diphenyl-3,5-pyrazolidinedione] | ++ | 59.00 ± 6.51 | 42.10 ± 8.20 | 47.30 ± 6.70 | 42.30 ± 6.75 | 0.6545 ± 0.0545 | 28.70 ± 7.24 | 0.6886 ± 0.0699 | 67.50 ± 2.30 | 0.3139 ± 0.0224 | 74.60 ± 4.70 | 0.2458 ± 0.0454 | 0.73 ± 0.21 | 4.33 ± 0.47 | 5.00 ± 0.56 | 8.50 ± 10.6 | 4.30 ± 4.10 | 83.94 ± 8.22 | 7.90 ± 6.70 | 6.50 ± 2.90 | most frequent serious toxic effects [7]: ulcerogenesis and fluid retention; % inhibition ± standard error (contortions) [4, 8]: 27.70 ± 7.97%; Weight of wet granuloma ([6]; 50 mg/Kg/day per os): 434.75 ± 18.36 mg; Weight of wet granuloma ([6]; 100 mg/Kg/day per os): 424.50 ± 13.47 mg; Dry granuloma ± standard error ([6]; 100 mg/Kg/day per os): 71.23 ± 5.18 mg; Percentage inhibition Dry granuloma ([6]; 200 mg/Kg/day per os): 35.40 ± 5.50%; Percentage inhibition Wet granuloma ([6]; 200 mg/Kg/day per os): 22.20 ± 2.80%; Weight of wet granuloma ([6]; 200 mg/Kg/day per os): 353.40 ± 13.14 mg; Dry granuloma ± standard error ([6]; 200 mg/Kg/day per os): 49.96 ± 4.25 mg; inhibition of granuloma tissue formation [6, 15]: about the same degree of inhibition of granuloma tissue formation; inhibition of granuloma tissue formation [6, 16]: did not; LD50 per os in the rat (only range in parentheses printed) (rat; per os, doses in mg/kg, no central value printed): 530 - 725
CCCCC1C(=O)N(c2ccccc2)N(c2ccccc2)C1=O [Piperazine salt of Phenylbutazone] | + | – | – | – | – | – | – | – | – | – | – | – | – | – | – | – | – | – | – | – | –
